# Measured values published in patent US20220387268A1, “OIL-IN-WATER MACROEMULSION” (SYMRISE AG, priority 2019, published 2022).
# What was measured:
# water solubility = type: physicochemical; settings: room temperature
# [1] = log P value (octanol:water); type: physicochemical; settings: water/n-octanol
# Excerpt: The partition coefficient (P) is the ratio of concentrations of a compound in a mixture of two immiscible solvents at equilibrium. This ratio is therefore a comparison of the solubility of the solute in these two liquids. In the chemical and pharmaceutical sciences, both phases usually are solvents. Most commonly, one of the solvents is water, while the second is hydrophobic such as 1-octanol.
# Log P=log 10(Partition Coefficient)
# Partition Coefficient,P=[organic]/[aqueous]
SMILES,Water solubility (water solubility) [µg/mL],log P [1]
CC(C=O)Cc1ccc(C(C)C)cc1 (stereo not shown),17.8,3.91
CC(=O)OC1CCCCC1C(C)(C)C (stereo not shown) [AGRUMEX LC],17.6,
CCCCCC1CCC(=O)O1 (stereo not shown) [ALDEHYD C18 SOG.],2373.1,
C=CC(C)CCCC(C)(C)O (stereo not shown) [DIHYDROMYRCENOL],671.2,3.47
CCCC(=O)OC(C)(C)Cc1ccccc1 [DIMETHYLBENZYLCARBINYLBUTYRAT],,4.43
O=C1CCCCCCCCCCCC(=O)OCCO1 [ETHYLENBRASSYLAT],20.9,4.71
CCCCCC1C(=O)CCC1CC(=O)OC (stereo not shown) [HEDION],401.5,
O=Cc1ccc2c(c1)OCO2 [HELIOTROPIN/PIPERONAL],2260.1,1.77
CCCCCC/C(C=O)=C\c1ccccc1 [HEXYLZIMTALDEHYD ALPHA],1.2,4.82
CCC(C)(O)CCCC(C)C (stereo not shown) [TETRAHYDROLINALOOL],492.4,3.6
